Test results published in BindingDB's records for doi:10.1016/j.bmc.2013.03.060 (Meijo University, 2013).

Biological target: T1, Androgen receptor (Homo sapiens, UniProt P10275)
T1 sequence (P10275 whole entry): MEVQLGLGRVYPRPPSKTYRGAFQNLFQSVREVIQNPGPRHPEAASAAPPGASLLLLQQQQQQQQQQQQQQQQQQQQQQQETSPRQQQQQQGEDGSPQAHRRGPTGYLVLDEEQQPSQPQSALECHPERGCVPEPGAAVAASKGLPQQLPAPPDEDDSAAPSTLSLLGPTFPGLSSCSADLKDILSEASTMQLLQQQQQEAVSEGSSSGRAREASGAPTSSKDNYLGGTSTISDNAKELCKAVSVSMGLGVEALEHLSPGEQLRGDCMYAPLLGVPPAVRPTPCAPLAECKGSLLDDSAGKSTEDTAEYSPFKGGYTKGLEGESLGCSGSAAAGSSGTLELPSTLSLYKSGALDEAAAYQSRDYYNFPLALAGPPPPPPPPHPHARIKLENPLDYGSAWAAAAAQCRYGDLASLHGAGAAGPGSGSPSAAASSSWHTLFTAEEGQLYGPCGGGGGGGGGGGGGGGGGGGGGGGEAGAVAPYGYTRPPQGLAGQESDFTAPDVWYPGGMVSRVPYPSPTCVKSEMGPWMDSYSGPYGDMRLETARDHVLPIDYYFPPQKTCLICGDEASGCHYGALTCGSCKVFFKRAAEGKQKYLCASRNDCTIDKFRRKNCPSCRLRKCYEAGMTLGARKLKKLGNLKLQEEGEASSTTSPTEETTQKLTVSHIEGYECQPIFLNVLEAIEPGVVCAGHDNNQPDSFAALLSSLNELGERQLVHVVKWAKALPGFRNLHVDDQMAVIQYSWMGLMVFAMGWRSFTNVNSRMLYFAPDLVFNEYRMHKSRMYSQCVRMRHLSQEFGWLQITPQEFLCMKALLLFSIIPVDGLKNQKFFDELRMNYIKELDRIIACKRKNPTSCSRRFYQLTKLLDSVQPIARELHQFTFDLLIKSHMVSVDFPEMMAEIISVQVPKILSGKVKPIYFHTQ
Assay: Antagonist activity at human androgen receptor LBD expressed in human MDA-kb2 cells by luciferase reporter gene assay

Row | IC50 [nM] | Structure (SMILES)
1 | 851 | CN(C)c1ccc(-c2cc(O)c3c(=O)cccc-3o2)cc1
2 | 851 | O=c1cccc2oc(-c3ccc(O)cc3)cc(O)c1-2 [5-hydroxy-2-(4-hydroxyphenyl)-4H-chromen-4-one]
